Test results published in PubChem BioAssay AID248 (DTP/NCI, 2004).
Several values for one entry are separate records, joined by “and”; a condition that tells them apart may be missing. Equal entries are not always repeated. Toxic doses and inconclusive results are not listed. Cut-off read from the data, not from the text of the source: active = T/C of 150% or more; inactive = T/C below 125%.

System: L1210 leukemia ip in BDF1 mice, survival T/C
Test: NCI In Vivo Anticancer Drug Screen. Data for tumor model L1210 Leukemia (intraperitoneal) in B6D2F1 (BDF1) mice
Details: endpoint: mean survival time, higher = longer survival
In short: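 Tumor was transplanted into mice, which were then dosed with test compound or vehicle alone. Survival was recorded for each group, and the treated figure was expressed relative to the control figure.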

[1] = dose: 12.5 mg/kg/injection, schedule: Q04DX003 (ip), vehicle: Klucel (hydroxypropylcellulose) (HPC)
[2] = dose: 25.0 mg/kg/injection, schedule: Q04DX003 (ip), vehicle: Klucel (hydroxypropylcellulose) (HPC)
[3] = dose: 50.0 mg/kg/injection, schedule: Q01DX009 (ip), vehicle: Klucel (hydroxypropylcellulose) (HPC)
[4] = dose: 100.0 mg/kg/injection, schedule: Q01DX009 (ip), vehicle: Klucel (hydroxypropylcellulose) (HPC)
[5] = dose: 100.0 mg/kg/injection, schedule: Q04DX003 (ip), vehicle: Klucel (hydroxypropylcellulose) (HPC)
[6] = dose: 100.0 mg/kg/injection, schedule: Q01DX009 (ip), vehicle: saline with Tween-80
[7] = dose: 100.0 mg/kg/injection, schedule: Q04DX003 (ip), vehicle: saline with Tween-80
[8] = dose: 200.0 mg/kg/injection, schedule: Q01DX009 (ip), vehicle: saline with Tween-80
[9] = dose: 200.0 mg/kg/injection, schedule: Q04DX003 (ip), vehicle: saline with Tween-80
[10] = dose: 400.0 mg/kg/injection, schedule: Q04DX003 (ip), vehicle: saline with Tween-80
[11] = dose: 100.0 mg/kg/injection, schedule: Q04DX003 (ip), vehicle: saline
[12] = dose: 200.0 mg/kg/injection, schedule: Q04DX003 (ip), vehicle: saline
[13] = dose: 25.0 mg/kg/injection, schedule: Q01DX009 (ip), vehicle: Klucel (hydroxypropylcellulose) (HPC)
[14] = dose: 100.0 mg/kg/injection, schedule: Q01DX001 (ip), vehicle: saline
[15] = dose: 200.0 mg/kg/injection, schedule: Q01DX001 (ip), vehicle: saline
[16] = dose: 400.0 mg/kg/injection, schedule: Q01DX001 (ip), vehicle: saline
[17] = dose: 100.0 mg/kg/injection, schedule: Q04DX002 (ip), vehicle: Klucel (hydroxypropylcellulose) (HPC)
[18] = dose: 200.0 mg/kg/injection, schedule: Q01DX009 (ip), vehicle: Klucel (hydroxypropylcellulose) (HPC)
[19] = dose: 400.0 mg/kg/injection, schedule: Q01DX009 (ip), vehicle: Klucel (hydroxypropylcellulose) (HPC)
[20] = dose: 400.0 mg/kg/injection, schedule: Q04DX003 (ip), vehicle: saline
[21] = dose: 200.0 mg/kg/injection, schedule: Q04DX003 (ip), vehicle: Klucel (hydroxypropylcellulose) (HPC)
[22] = dose: 400.0 mg/kg/injection, schedule: Q04DX003 (ip), vehicle: Klucel (hydroxypropylcellulose) (HPC)

Measured: T/C

Cc1ccc(C)c(CN(C)C)c1O
inactive: dose: 6.0 mg/kg/injection, schedule: Q04DX003 (ip), vehicle: Klucel (hydroxypropylcellulose) (HPC) 98 % of control | [1] 96 % of control | [2] 89 % of control | [3] 97 % of control | dose: 50.0 mg/kg/injection, schedule: Q04DX003 (ip), vehicle: Klucel (hydroxypropylcellulose) (HPC) 107 % of control | [4] 89 % of control | [5] 100 % of control and 89 % of control

COc1cc(C(C)O)cc(OC)c1OC (stereo not given)
inactive: [6] 101 % of control | [7] 101 % of control | [8] 98 % of control | [9] 100 % of control | dose: 400.0 mg/kg/injection, schedule: Q01DX009 (ip), vehicle: saline with Tween-80 93 % of control | [10] 99 % of control

CNC(=O)N(c1ccccc1)C1CCCCC1
inactive: dose: 50.0 mg/kg/injection, schedule: Q01DX009 (ip), vehicle: saline 112 % of control | dose: 100.0 mg/kg/injection, schedule: Q01DX009 (ip), vehicle: saline 103 % of control | [11] 104 % of control | dose: 200.0 mg/kg/injection, schedule: Q01DX009 (ip), vehicle: saline 103 % of control | [12] 97 % of control

COc1ccc([N+](=O)[O-])cn1
inactive: [7] 98 % of control | [9] 91 % of control | [10] 88 % of control

O=c1ccc([N+](=O)[O-])c[nH]1.[Ag]
inactive: dose: 6.25 mg/kg/injection, schedule: Q01DX009 (ip), vehicle: Klucel (hydroxypropylcellulose) (HPC) 86 % of control | dose: 12.5 mg/kg/injection, schedule: Q01DX009 (ip), vehicle: Klucel (hydroxypropylcellulose) (HPC) 86 % of control | [1] 88 % of control | [13] 95 % of control | [2] 99 % of control

O=C1C(Br)=C(C2CCCCC2)C(=O)c2ccccc21
inactive: dose: 50.0 mg/kg/injection, schedule: Q01DX001 (ip), vehicle: carboxymethylcellulose (CMC) 97 % of control | dose: 100.0 mg/kg/injection, schedule: Q01DX001 (ip), vehicle: carboxymethylcellulose (CMC) 116 % of control | dose: 200.0 mg/kg/injection, schedule: Q01DX001 (ip), vehicle: carboxymethylcellulose (CMC) 103 % of control

C/C(=N/OC(=O)N(C)C)c1cccc(Cl)c1
inactive: dose: 44.0 mg/kg/injection, schedule: Q01DX001 (ip), vehicle: saline 95 % of control and 103 % of control | dose: 66.0 mg/kg/injection, schedule: Q01DX001 (ip), vehicle: saline 95 % of control and 101 % of control | [14] 94 % of control and 95 % of control | dose: 150.0 mg/kg/injection, schedule: Q01DX001 (ip), vehicle: saline 101 % of control and 112 % of control | [15] 97 % of control | [16] 103 % of control

COc1cccc(NC(=S)Nc2ccc(O)cc2)c1
inactive: [17] 99 % of control | dose: 200.0 mg/kg/injection, schedule: Q04DX002 (ip), vehicle: Klucel (hydroxypropylcellulose) (HPC) 101 % of control | dose: 400.0 mg/kg/injection, schedule: Q04DX002 (ip), vehicle: Klucel (hydroxypropylcellulose) (HPC) 104 % of control

CCCCCCCCCCNC(=O)C[n+]1cccc(C(=O)Nc2ccc(Cl)cc2)c1
inactive: dose: 6.25 mg/kg/injection, schedule: Q01DX009 (ip), vehicle: acetone 97 % of control | dose: 12.5 mg/kg/injection, schedule: Q01DX009 (ip), vehicle: acetone 92 % of control | dose: 12.5 mg/kg/injection, schedule: Q04DX003 (ip), vehicle: saline 108 % of control | dose: 25.0 mg/kg/injection, schedule: Q04DX003 (ip), vehicle: saline 96 % of control

C/C(CC(C)C)=N\NC(=O)Nc1ccccc1Cl
inactive: dose: 100.0 mg/kg/injection, schedule: Q01DX009 (ip), vehicle: other 102 % of control | dose: 200.0 mg/kg/injection, schedule: Q01DX009 (ip), vehicle: other 89 % of control | dose: 400.0 mg/kg/injection, schedule: Q01DX009 (ip), vehicle: other 102 % of control

Cn1c(=O)cc(C=Nc2ccc(N=Nc3ccccc3)cc2)c2ccccc21
inactive: [14] 94 % of control | [15] 96 % of control | [16] 87 % of control

NC1=C(Cl)C(=O)c2ccccc2C1=O
inactive: dose: 25.0 mg/kg/injection, schedule: Q04DX003 (ip), vehicle: saline with Tween-80 100 % of control | dose: 50.0 mg/kg/injection, schedule: Q04DX003 (ip), vehicle: saline with Tween-80 101 % of control | [7] 90 % of control

COc1cc(C(Br)C(Br)C(=O)c2ccccc2[N+](=O)[O-])cc(OC)c1OC (stereo not given)
inactive: [4] 95 % of control | [18] 95 % of control | [19] 94 % of control

CCOCc1cccc(C(=O)NCCCc2c(-c3ccccc3)nc(N)[nH]c2=O)c1
inactive: dose: 36.2 mg/kg/injection, schedule: Q01DX001 (ip), vehicle: Klucel (hydroxypropylcellulose) (HPC) 94 % of control | dose: 62.5 mg/kg/injection, schedule: Q01DX001 (ip), vehicle: Klucel (hydroxypropylcellulose) (HPC) 105 % of control | dose: 125.0 mg/kg/injection, schedule: Q01DX001 (ip), vehicle: Klucel (hydroxypropylcellulose) (HPC) 98 % of control

O=C(CSc1cc(-c2ccc(Cl)cc2)s[s+]1)c1ccc(Cl)cc1
inactive: [11] 102 % of control | [12] 98 % of control | [20] 98 % of control

COCC(=N)C(C#N)(OC)C(=O)c1ccccc1 (stereo not given)
inactive: dose: 75.0 mg/kg/injection, schedule: Q01DX001 (ip), vehicle: other 101 % of control | dose: 150.0 mg/kg/injection, schedule: Q01DX001 (ip), vehicle: other 90 % of control

CCCC(=O)Nc1ccc(N=Nc2ccccc2)cc1
inactive: [13] 100 % of control | [3] 92 % of control | [4] 94 % of control and 96 % of control | [18] 95 % of control

CC=C(C)c1ccccc1 (mixture of isomers)
inactive: dose: 50.0 mg/kg/injection, schedule: Q01DX009 (ip), vehicle: saline with Tween-80 118 % of control | [6] 123 % of control | [8] 94 % of control

NC(=O)c1ccccc1NC(=O)Nc1ccccc1F
inactive: [4] 105 % of control | [18] 107 % of control | [19] 100 % of control

NC(N)=Nc1ccccc1 (tested in a mixture with another compound)
inactive: [11] 100 % of control | [12] 100 % of control

O=C(O)/C(=C\CCCCCC/C=C(\CCO)C(=O)O)CCO
inactive: [4] 98 % of control | [5] 96 % of control | [18] 91 % of control | [21] 93 % of control | [19] 89 % of control | [22] 93 % of control

S=c1[nH]c2[nH]cnc(=S)c2[nH]1
inactive: [14] 97 % of control | [15] 97 % of control

CN(C)CCC(C(=O)c1ccccc1)c1ccccn1 (stereo not given)
inactive: dose: 55.0 mg/kg/injection, schedule: Q01DX Z (ip), vehicle: saline 100 % of control | dose: 83.0 mg/kg/injection, schedule: Q01DX Z (ip), vehicle: saline 107 % of control | dose: 125.0 mg/kg/injection, schedule: Q01DX Z (ip), vehicle: saline 96 % of control

COc1ccc(Cl)cc1NC(=O)Nc1ccc(Nc2ccccc2)cc1
inactive: [4] 104 % of control | [5] 101 % of control | [18] 101 % of control | [21] 98 % of control | [19] 86 % of control | [22] 97 % of control

Cc1ccccc1NC(=O)Nc1ccccc1C
inactive: [4] 97 % of control | [18] 106 % of control | [19] 93 % of control

O=C(OCc1ccccc1CN1CCOCC1)c1ccc([N+](=O)[O-])cc1Cl
inactive: dose: 25.0 mg/kg/injection, schedule: Q04DX002 (ip), vehicle: Klucel (hydroxypropylcellulose) (HPC) 92 % of control | dose: 50.0 mg/kg/injection, schedule: Q04DX002 (ip), vehicle: Klucel (hydroxypropylcellulose) (HPC) 106 % of control | [17] 100 % of control

O=C(O)CCCN1C/C(=C\c2ccccc2)C(=O)C1=O
inactive: [11] 104 % of control | [12] 101 % of control | [20] 98 % of control
